{"source": "patent US4713372A", "about": "“2-chloropentostatin compound having adenosine diaminase inhibitory activity” (Warner-Lambert Company, priority 1985, dated 1987)", "key": {"[1]": {"molecular_target": "T1, adenosine deaminase (Homo sapiens, UniProt P00813)", "T1 sequence (P00813 1-363)": "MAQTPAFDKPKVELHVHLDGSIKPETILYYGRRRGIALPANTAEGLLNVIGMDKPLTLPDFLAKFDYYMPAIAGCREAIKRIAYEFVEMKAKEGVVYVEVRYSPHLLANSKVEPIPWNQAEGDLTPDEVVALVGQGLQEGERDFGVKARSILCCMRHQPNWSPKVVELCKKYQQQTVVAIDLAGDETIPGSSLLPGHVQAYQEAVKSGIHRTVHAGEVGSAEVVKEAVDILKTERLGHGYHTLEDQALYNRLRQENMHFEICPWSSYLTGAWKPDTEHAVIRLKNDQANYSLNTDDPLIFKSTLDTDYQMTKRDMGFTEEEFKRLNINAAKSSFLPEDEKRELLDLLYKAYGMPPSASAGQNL", "details": "prior patents, in words; cited from earlier work"}, "[2]": {"test_system": "Streptococcus faecalis 05045", "assay": "Agar disc diffusion, zone of inhibition vs. Streptococcus faecalis 05045", "type": "cell-based", "details": "Enterococcus faecalis, 12.7 mm disc, 37°, overnight, read-out: Zone diameter", "experimental": "Paper disks (12.7 mm in diameter) impregnated with an aqueous solution containing varying amounts of 2'-chloropentostatin were placed on a layer of agar containing AM-10 assay medium (Table 4) and inoculated with Streptococcus faecalis 05045. After incubation at 37° overnight the following zones of inhibition were observed: […]"}, "[3]": {"molecular_target": "T1, adenosine deaminase", "assay": "biochemical", "experimental": "The potency of 2'-chloropentostatin as an adenosine deaminase inhibitor was determined using the following methods. The velocity (in moles/minute/ml) of the reaction of adenosine deaminase with adenosine was measured for several concentrations of the enzyme in the presence of various concentrations of the inhibitor, 2'-chloropentostatin. The data has been plotted in FIG. 1 in the form of an Ackerman-Potter plot (see W. W. Ackerman and V. R. Potter, Proc. Soc. Exp. Biol. Med., 72:1 (1949)).\nThe values of Vo /Vi =2 for each curve yield the I50 for the enzyme inhibitor at each substrate concentration. These I50 values have been plotted versus substrate concentration in FIG. 3."}, "[4]": {"test_system": "DNA viruses, especially herpes and vaccinia viruses", "details": "U.S. Pat. No. 3,616,208; mammals; cited from earlier work"}, "[5]": {"molecular_target": "T1, adenosine deaminase", "details": "cited from earlier work"}}}
{"compound": "OC[C@H]1O[C@@H](n2cnc3c2N=CNC[C@H]3O)[C@H](O)[C@@H]1O", "note": "[coformycin, (R) -3-(beta-D-ribofuranosyl)-3,6,7,8-tetrahydroimidazo[4,5-d][1,3]diazepin-8-ol]", "values": [{"measurement": "inhibition of adenosine deaminase", "setting": "[1]", "result": "potent inhibitors of adenosine deaminase"}]}
{"compound": "OC[C@H]1O[C@@H](n2cnc3c2N=CNC[C@H]3O)[C@H](Cl)[C@@H]1O", "note": "[2'-chloropentostatin, (R)-3-(2-chloro-2deoxy-beta-D-ribofuranosyl)-3,6,7,8-tetrahydroimidazo[4,5-d][1,3]diazepin-8-ol]", "values": [{"measurement": "zone of inhibition at 0.2 µg/mL", "setting": "[2]; 0.2 μg/ml", "result": 40, "unit": "mm"}, {"measurement": "zone of inhibition at 2 µg/mL", "setting": "[2]; 2 μg/ml", "result": 47, "unit": "mm"}, {"measurement": "zone of inhibition at 20 µg/mL", "setting": "[2]; 20 μg/ml", "result": 55, "unit": "mm"}, {"measurement": "zone of inhibition at 200 µg/mL", "setting": "[2]; 200 μg/ml", "result": 61, "unit": "mm"}, {"measurement": "zone of inhibition at 2000 µg/mL", "setting": "[2]; 2000 μg/ml", "result": 64, "unit": "mm"}, {"measurement": "Ki", "setting": "[3]", "result": 0.1, "unit": "nM"}, {"measurement": "type of inhibition of adenosine deaminase", "setting": "[3]; Ackerman-Potter plot, FIG. 1", "result": "\"tight-binding\" or \"pseudo-irreversible\" inhibitor"}]}
{"compound": "Nc1ncnc2c1ncn2[C@@H]1O[C@H](CO)[C@@H](O)[C@@H]1O", "note": "[9-(beta-D-arabinofuranosyl)adenine]", "values": [{"measurement": "treatment of DNA viruses", "setting": "[4]", "result": "useful agent for the treatment of DNA viruses"}, {"measurement": "biological efficacy, limitation by deamination/deactivation in vivo", "setting": "[5]", "result": "greatly diminished by the rapid deamination"}]}
